In the assay the target is T1, human GnRH receptor (Homo sapiens, UniProt P30968).
T1 sequence (P30968 1-328): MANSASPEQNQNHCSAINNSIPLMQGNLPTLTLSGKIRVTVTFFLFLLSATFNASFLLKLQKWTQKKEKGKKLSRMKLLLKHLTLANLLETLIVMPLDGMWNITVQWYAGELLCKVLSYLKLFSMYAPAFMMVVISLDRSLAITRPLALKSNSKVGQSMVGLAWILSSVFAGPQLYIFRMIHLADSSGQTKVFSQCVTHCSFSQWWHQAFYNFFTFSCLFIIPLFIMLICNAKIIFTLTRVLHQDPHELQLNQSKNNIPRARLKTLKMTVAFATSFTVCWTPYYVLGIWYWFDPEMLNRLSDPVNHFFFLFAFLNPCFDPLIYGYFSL
Description: IP-One HTRF assay with buserelin (at EC80) stimulation. The format is cell-based. Particulars: CHO cells stably expressing human GnRH receptor, read-out: Potency in IP-One HTRF assay, given as IC50. The essentials:
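CHO cells stably expressing human GnRH receptor, preincubated 1 h at 37° C with IP1-d2, were exposed to compound and buserelin at EC80 for 1 h at 37° C. After lysis with Tb-anti-IP1 antibody (1 h, 22° C), 665/620 nm HTRF ratio read; 10 concentrations, 20 μM–1 nM, duplicates, 4-parameter IC50.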
For orientation: In TR-FRET formats the signal depends on donor and acceptor labels being close together.

For `O=C(O)c1cccc(NC(=O)c2ccc3c(c2)C2(CCS(=O)(=O)CC2)C(C2CC2)N3S(=O)(=O)c2cccc(OC(F)F)c2)c1` (single isomer, unassigned) [Example 90.2, 3-{[(2-cyclopropyl-1-{[3-(difluoromethoxy)phenyl]sulfonyl}-1′,1′-dioxido-1,2,2′,3′,5′,6′-hexahydrospiro[indole-3,4′-thiopyran]-5-yl)carbonyl]amino}benzoic acid], the IC50 (in general, the concentration that gives 50% inhibition) is 2860 nM.
To `CC1N(S(=O)(=O)c2ccc(F)cc2)c2ccc(C(=O)NCc3ccccc3Cl)cc2C12CCOCC2` (stereo not drawn) [Example 2, N-(2-chlorobenzyl)-1-[(4-fluorophenyl)sulfonyl]-2-methyl-1,2,2′,3′,5′,6′-hexahydrospiro[indole-3,4′-pyran]-5-carboxamide] belongs 189 nM; to `CC1N(S(=O)(=O)c2ccc(F)cc2)c2ccc(C(=O)NCc3ncccc3C(F)(F)F)cc2C12CCOCC2` (stereo not drawn) [Example 3, 1-[(4-fluorophenyl)sulfonyl]-2-methyl-N-{[3-(trifluoromethyl)pyridin-2-yl]methyl}-1,2,2′,3′,5′,6′-hexahydrospiro[indole-3,4′-pyran]-5-carboxamide], 584 nM.
For `CC1N(S(=O)(=O)c2ccc(F)cc2)c2ccc(C(=O)NCc3ccccc3C(F)(F)F)cc2C12CCOCC2` (stereo not drawn) [Example 4, 1-[(4-fluorophenyl)sulfonyl]-2-methyl-N-[2-(trifluoromethyl)benzyl]-1,2,2′,3′,5′,6′-hexahydrospiro[indole-3,4′-pyran]-5-carboxamide] the value was 281 nM; for `CC1N(S(=O)(=O)c2ccc(F)cc2)c2ccc(C(=O)NCc3ncc(F)cc3Cl)cc2C12CCOCC2` (stereo not drawn) [Example 5, N-[(3-chloro-5-fluoropyridin-2-yl)methyl]-1-[(4-fluorophenyl)sulfonyl]-2-methyl-1,2,2′,3′,5′,6′-hexahydrospiro[indole-3,4′-pyran]-5-carboxamide], 345 nM; for `CC1N(S(=O)(=O)c2ccc(F)cc2)c2ccc(C(=O)NCc3ccccn3)cc2C12CCOCC2` (stereo not drawn) [Example 6, 1-[(4-fluorophenyl)sulfonyl]-2-methyl-N-(2-pyridylmethyl)-1,2,2′,3′,5′,6′-hexahydrospiro[indole-3,4′-pyran]-5-carboxamide], 6720 nM.
Regarding `CC1N(S(=O)(=O)c2ccc(F)cc2)c2ccc(C(=O)NCc3ccc(F)cc3)cc2C12CCOCC2` (stereo not drawn) [Example 7, N-(4-fluorobenzyl)-1-[(4-fluorophenyl)sulfonyl]-2-methyl-1,2,2′,3′,5′,6′-hexahydrospiro[indole-3,4′-pyran]-5-carboxamide], the IC50 is 1060 nM.
Consider `CC1N(S(=O)(=O)c2ccc(F)cc2)c2ccc(C(=O)NCc3ccccc3C#N)cc2C12CCOCC2` (stereo not drawn) [Example 8, N-(2-cyanobenzyl)-1-[(4-fluorophenyl)sulfonyl]-2-methyl-1,2,2′,3′,5′,6′-hexahydrospiro[indole-3,4′-pyran]-5-carboxamide], for which the IC50 was determined as 2510 nM.
For the compound `CC1N(S(=O)(=O)c2ccc(F)cc2)c2ccc(C(=O)NCc3ccccc3S(C)(=O)=O)cc2C12CCOCC2` (stereo not drawn) [Example 9, 1-[(4-fluorophenyl)sulfonyl]-N-(2-mesylbenzyl)-2-methyl-1,2,2′,3′,5′,6′-hexahydrospiro[indole-3,4′-pyran]-5-carboxamide], the IC50 stood at 4830 nM.
To `CC1N(S(=O)(=O)c2ccc(F)cc2)c2ccc(C(=O)Nc3cccc(S(C)(=O)=O)c3)cc2C12CCOCC2` (stereo not drawn) [Example 10, 1-[(4-fluorophenyl)sulfonyl]-N-(3-mesylphenyl)-2-methyl-1,2,2′,3′,5′,6′-hexahydrospiro[indole-3,4′-pyran]-5-carboxamide] belongs 1390 nM; to `CC1N(S(=O)(=O)c2ccc(F)cc2)c2ccc(C(=O)Nc3cccc(S(=O)(=O)N(C)C)c3)cc2C12CCOCC2` (stereo not drawn) [Example 11, N-[3-(N,N-dimethylsulfamoyl)phenyl]-1-[(4-fluorophenyl)sulfonyl]-2-methyl-1,2,2′,3′,5′,6′-hexahydrospiro[indole-3,4′-pyran]-5-carboxamide], 378 nM; to `O=C(NCc1ccccc1Cl)c1ccc2c(c1)C1(CC[S+]([O-])CC1)C(C1CC1)N2S(=O)(=O)c1ccc(F)cc1` (stereo not drawn) [Example 13, N-(2-Chlorobenzyl)-2-cyclopropyl-1-[(4-fluorophenyl)sulfonyl]-1,2,2′,3′,5′,6′-hexahydrospiro[indole-3,4′-thiopyran]-5-carboxamide 1′-oxide], 30 nM.
For `O=C(NCc1ncccc1C(F)(F)F)c1ccc2c(c1)C1(CCS(=O)(=O)CC1)C(C1CC1)N2S(=O)(=O)c1ccc(F)cc1` (stereo not drawn) [Example 15, 2-cyclopropyl-1-[(4-fluorophenyl)sulfonyl]-N-{[3-(trifluoromethyl)pyridin-2-yl]methyl}-1,2,2′,3′,5′,6′-hexahydrospiro[indole-3,4′-thiopyran]-5-carboxamide 1′,1′-dioxide] the value was 103 nM.
As to `O=C(NCc1ccc(F)cc1Cl)c1ccc2c(c1)C1(CCS(=O)(=O)CC1)C(C1CC1)N2S(=O)(=O)c1ccc(F)cc1` (stereo not drawn) [Example 16, N-(2-chloro-4-fluorobenzyl)-2-cyclopropyl-1-[(4-fluorophenyl)sulfonyl]-1,2,2′,3′,5′,6′-hexahydrospiro[indole-3,4′-thiopyran]-5-carboxamide 1′,1′-dioxide], the concentration for half-maximal inhibition (IC50) came out at 74 nM.
To `O=C(NCc1ncc(F)cc1Cl)c1ccc2c(c1)C1(CCS(=O)(=O)CC1)C(C1CC1)N2S(=O)(=O)c1ccc(F)cc1` (stereo not drawn) [Example 17, N-[(3-chloro-5-fluoropyridin-2-yl)methyl]-2-cyclopropyl-1-[(4-fluorophenyl)sulfonyl]-1,2,2′,3′,5′,6′-hexahydrospiro[indole-3,4′-thiopyran]-5-carboxamide 1′,1′-dioxide] belongs 184 nM; to `O=C(NCc1ccccc1Cl)c1ccc2c(c1)C1(CCS(=O)(=O)CC1)C(C1CC1)N2S(=O)(=O)c1ccc(F)cc1` (stereo not drawn) [Example 18, N-(2-chlorobenzyl)-2-cyclopropyl-1-[(4-fluorophenyl)sulfonyl]-1,2,2′,3′,5′,6′-hexahydrospiro[indole-3,4′-thiopyran]-5-carboxamide 1′,1′-dioxide], 47 nM.
To `CC(C)(NC(=O)c1ccc2c(c1)C1(CCS(=O)(=O)CC1)C(C1CC1)N2S(=O)(=O)c1ccc(F)cc1)c1ccc(F)cc1Cl` (stereo not drawn) [Example 19, N-(2-chloro-4-fluoro-α,α-dimethylbenzyl)-2-cyclopropyl-1-[(4-fluorophenyl)sulfonyl]-1,2,2′,3′,5′,6′-hexahydrospiro[indole-3,4′-thiopyran]-5-carboxamide 1′,1′-dioxide] belongs 4170 nM; to `CC(C)(NC(=O)c1ccc2c(c1)C1(CCS(=O)(=O)CC1)C(C1CC1)N2S(=O)(=O)c1ccc(F)cc1)c1ccc(F)cc1` (stereo not drawn) [Example 20, 2-cyclopropyl-N-(4-fluoro-α,α-dimethylbenzyl)-1-[(4-fluorophenyl)sulfonyl]-1,2,2′,3′,5′,6′-hexahydrospiro[indole-3,4′-thiopyran]-5-carboxamide 1′,1′-dioxide], 346 nM; to `O=C(NC1(c2ccccc2Cl)CC1)c1ccc2c(c1)C1(CCS(=O)(=O)CC1)C(C1CC1)N2S(=O)(=O)c1ccc(F)cc1` (stereo not drawn) [Example 21, N-[1-(2-chlorophenyl)cyclopropyl]-2-cyclopropyl-1-[(4-fluorophenyl)sulfonyl]-1,2,2′,3′,5′,6′-hexahydrospiro[indole-3,4′-thiopyran]-5-carboxamide 1′,1′-dioxide], 3040 nM.
For `O=C(NCc1ccccn1)c1ccc2c(c1)C1(CCS(=O)(=O)CC1)C(C1CC1)N2S(=O)(=O)c1ccc(F)cc1` (stereo not drawn) [Example 22, 2-cyclopropyl-1-[(4-fluorophenyl)sulfonyl]-N-(2-pyridylmethyl)-1,2,2′,3′,5′,6′-hexahydrospiro[indole-3,4′-thiopyran]-5-carboxamide 1′,1′-dioxide] the value was 1480 nM; for `CS(=O)(=O)c1cccc(NC(=O)c2ccc3c(c2)C2(CCS(=O)(=O)CC2)C(C2CC2)N3S(=O)(=O)c2ccc(F)cc2)c1` (stereo not drawn) [Example 23, 2-cyclopropyl-1-[(4-fluorophenyl)sulfonyl]-N-(3-mesylphenyl)-1,2,2′,3′,5′,6′-hexahydrospiro[indole-3,4′-thiopyran]-5-carboxamide 1′,1′-dioxide], 328 nM.
For `O=C(NCCc1ccccc1Cl)c1ccc2c(c1)C1(CCS(=O)(=O)CC1)C(C1CC1)N2S(=O)(=O)c1ccc(F)cc1` (stereo not drawn) [Example 25, N-[2-(2-chlorophenyl)ethyl]-2-cyclopropyl-1-[(4-fluorophenyl)sulfonyl]-1,2,2′,3′,5′,6′-hexahydrospiro[indole-3,4′-thiopyran]-5-carboxamide 1′,1′-dioxide], the IC50 worked out at 2620 nM.
To `CC1N(S(=O)(=O)c2ccc(F)cc2)c2ccc(C(=O)NCc3ncccc3Cl)cc2C12CCS(=O)(=O)CC2` (stereo not drawn) [Example 26, N-[(3-chloropyridin-2-yl)methyl]-1-[(4-fluorophenyl)sulfonyl]-2-methyl-1,2,2′,3′,5′,6′-hexahydrospiro[indole-3,4′-thiopyran]-5-carboxamide 1′,1′-dioxide] belongs 646 nM; to `CC1N(S(=O)(=O)c2ccc(F)cc2)c2ccc(C(=O)NC(C)(C)c3ccc(F)cc3Cl)cc2C12CCS(=O)(=O)CC2` (stereo not drawn) [Example 27, N-(2-chloro-4-fluoro-α,α-dimethylbenzyl)-1-[(4-fluorophenyl)sulfonyl]-2-methyl-1,2,2′,3′,5′,6′-hexahydrospiro[indole-3,4′-thiopyran]-5-carboxamide 1′,1′-dioxide], 9020 nM.

The values above are taken from patent US20140357655A1, “SPIROINDOLINE DERIVATIVES AS GONADOTROPIN- RELEASING HORMONE RECEPTOR ANTAGONISTS” (Bayer Intellectual Property GmbH, priority 2012, published 2014).
